Columns and labels:
Type in all cases: cell-based
[1] = system: PC-3 human prostate cancer; experiment: CCK-8 proliferation inhibition, PC-3; conditions: CCK-8 method; for inhibition at 10 µM / inhibition at 100 µM: Homo sapiens
Method: (§1) Detecting the inhibition rate of the compound concentrations of 100 μM and 10 μM to Hut78 T-cell Leukemia cell, Jurkat E6-1 human T-cell lymphoma, PANC-1 human pancreatic cancer cells, A549 human lung cancer cells, K562 human chronic myeloid leukemia cells, Hep3B2.1-7 human liver cancer cells, MDA-MB-435s human breast cancer cells, Colo320 human rectal cancer cells and PC-3 human prostate cancer using CCK-8 method.

[2] = system: A549 human lung cancer cells; experiment: CCK-8 proliferation inhibition, A549; conditions: CCK-8 method; for inhibition at 10 µM / inhibition at 100 µM: Homo sapiens, A549
Method: as §1

[3] = system: MDA-MB-435s human breast cancer cells; experiment: CCK-8 proliferation inhibition, MDA-MB-435s; conditions: CCK-8 method; for inhibition at 10 µM / inhibition at 100 µM: Homo sapiens, MDA-MB-435S
Method: as §1

[4] = system: K562 human chronic myeloid leukemia cells; experiment: CCK-8 proliferation inhibition, K562; conditions: for inhibition at 10 µM / inhibition at 100 µM: Homo sapiens; for inhibition at 10 µM: K562, 10 μM; for inhibition at 100 µM: K562, 100 μM
Method: as §1

[5] = system: Colo320 human rectal cancer cells; experiment: CCK-8 proliferation inhibition, Colo320; conditions: CCK-8 method; for inhibition at 10 µM / inhibition at 100 µM: Homo sapiens, COLO 320
Method: as §1

[6] = system: PANC-1 human pancreatic cancer cells; experiment: CCK-8 proliferation inhibition, PANC-1; conditions: for inhibition at 10 µM / inhibition at 100 µM: Homo sapiens; for inhibition at 10 µM: PANC-1, 10 μM; for inhibition at 100 µM: PANC-1, 100 μM
Method: as §1

[7] = system: Jurkat E6-1 human T-cell lymphoma; experiment: CCK-8 proliferation inhibition, Jurkat E6-1; conditions: for inhibition at 10 µM / inhibition at 100 µM: Homo sapiens; for inhibition at 10 µM: Jurkat E6.1, 10 μM; for inhibition at 100 µM: Jurkat E6.1, 100 μM
Method: as §1

[8] = system: Hep3B2.1-7 human liver cancer cells; experiment: CCK-8 proliferation inhibition, Hep3B2.1-7; conditions: CCK-8 method; for inhibition at 10 µM / inhibition at 100 µM: Homo sapiens, Hep3B
Method: as §1

[9] = system: Hut78 T-cell Leukemia cell; experiment: CCK-8 proliferation inhibition, Hut78; conditions: for inhibition at 10 µM / inhibition at 100 µM: Homo sapiens, read-out: Hut-78 (inhibition %); for inhibition at 10 µM: HuT78, 10 μM; for inhibition at 100 µM: HuT78, 100 μM
Method: as §1

| Molecule | inhibition at 10 µM ([1]; compound concentration 10 μM) [%] | inhibition at 100 µM ([1]; compound concentration 100 μM) [%] | inhibition at 10 µM ([2]; compound concentration 10 μM) [%] | inhibition at 100 µM ([2]; compound concentration 100 μM) [%] | inhibition at 10 µM ([3]; compound concentration 10 μM) [%] | inhibition at 100 µM ([3]; compound concentration 100 μM) [%] | inhibition at 10 µM [4] [%] | inhibition at 100 µM [4] [%] | inhibition at 10 µM ([5]; compound concentration 10 μM) [%] | inhibition at 100 µM ([5]; compound concentration 100 μM) [%] | inhibition at 10 µM [6] [%] | inhibition at 100 µM [6] [%] | inhibition at 10 µM [7] [%] | inhibition at 100 µM [7] [%] | inhibition at 10 µM ([8]; compound concentration 10 μM) [%] | inhibition at 100 µM ([8]; compound concentration 100 μM) [%] | inhibition at 10 µM [9] [%] | inhibition at 100 µM [9] [%] | other results |
| --- | --- | --- | --- | --- | --- | --- | --- | --- | --- | --- | --- | --- | --- | --- | --- | --- | --- | --- | --- |
| COc1ccc(/C=C/C(=O)NCc2ccc(C(=O)Nc3ccncc3N)cc2)cc1OC [V-94] | 54.2 | 87.8 | 9.1 | 58.4 | 15.1 | 77 | 35 | 85.7 | -6.4 | 17.8 | 6 | 27.3 | 65.6 | 95.6 | 4.5 | 69.4 | 12.9 | 66.7 | – |
| Nc1cnccc1NC(=O)c1ccc(CNC(=O)/C=C/c2cccnc2)cc1 [V-43] | 88 | 94.5 | 41.2 | 85.5 | 18.8 | 86.4 | 13.8 | 60.8 | 19.1 | 59.4 | 3.1 | 35.9 | 69.1 | 96.8 | 22.5 | 60.5 | 25.7 | 49.6 | – |
| Nc1ncccc1NC(=O)c1ccc(CNC(=O)/C=C/c2ccc(F)cc2)cc1 [V-40, N-(2-amino-3-pyridyl)-4-[(4-fluorocinnamoyl)aminomethyl]benzamide] | 6.3 | 38.8 | 2.8 | 47.7 | 28.5 | 76.3 | 45 | 75 | 10 | 32.3 | 4.4 | 9.5 | 31.6 | 87.6 | -5 | 51.7 | 29.2 | 69.3 | – |
| Nc1ncccc1NC(=O)c1ccc(CNC(=O)OCc2ccc(F)cc2)cc1 [V-19, N-(2-amino-3-pyridyl)-4-[(4-fluorobenzyloxyacyl)aminomethyl]benzamide] | -1.9 | 48.5 | 18.3 | 57.1 | 27.5 | 89.1 | 25 | 65.1 | 0.9 | 34.3 | 26 | 36.8 | 19.1 | 77.8 | 21.5 | 69.8 | 19.8 | 54 | – |
| N-(2-amino-3-pyridyl)-4-[(2-naphthylmethoxyacyl)aminomethyl)benzamide [V-23] | – | – | – | – | – | – | – | – | – | – | – | – | – | – | – | – | – | – | PC-3 (inhibition %) ([1]; compound concentration 10 μM): 10.9%; PC-3 (inhibition %) ([1]; compound concentration 100 μM): 8.6%; A549 (inhibition %) ([2]; compound concentration 10 μM): 4.7%; A549 (inhibition %) ([2]; compound concentration 100 μM): 3.5%; 435s(inhibition %) ([3]; compound concentration 10 μM): 21.6%; 435s(inhibition %) ([3]; compound concentration 100 μM): 21.0%; K562 (inhibition %) ([4]; 10 μM): 27.2%; K562 (inhibition %) ([4]; 100 μM): 11.9%; Colo320 (inhibition %) ([5]; compound concentration 10 μM): 15.3%; Colo320 (inhibition %) ([5]; compound concentration 100 μM): 3.9%; PANC-1 (inhibition %) ([6]; 10 μM): 7.2%; PANC-1 (inhibition %) ([6]; 100 μM): 0.5%; Jurkat E6-1 (inhibition %) ([7]; 10 μM): 33.7%; Jurkat E6-1 (inhibition %) ([7]; 100 μM): 13.9%; Hep3B (inhibition %) ([8]; compound concentration 10 μM): 16.3%; Hep3B (inhibition %) ([8]; compound concentration 100 μM): 11.2%; Hut-78 (inhibition %) ([9]; 10 μM): 20.7%; Hut-78 (inhibition %) ([9]; 100 μM): 10.4% |

Reference: US8889876B2, “Histone deacetylase inhibitors and uses thereof” (Jiangsu Hengyi Pharmaceutical Co., Ltd., priority 2008, dated 2014)
